Test results from US20140242609A1, “Diagnosis and treatment of kidney stones, methods and compositions therefor” (Washington University, priority 2013, published 2014).
Several values for one entry are separate records, joined by “and”; a condition that tells them apart may be missing. Equal values may be shown once. Entries after “also recorded” stand apart in the source; their conditions may differ.

Columns and labels:
[1] = test system: miR-9-1 promoter; assay: ChIP over miR-9-1 promoter in TALH cells of treated mice; type: in vivo, mouse; conditions: for fold enrichment of NFATc1 over miR-9-1 promoter region: versus vehicle
Protocol: (§1) Freshly isolated TALH cells or primary TALH cell cultures were cross-linked in 1% paraformaldehyde (pH7.0) for 10 min at room temperature. The cross-linked cells were lysed following to instruction of MAGnify ChIP system (Invitrogen). Chromatin was sonicated into 500 bp fragments with Bioruptor UCD-200 (High power, 15 cycles of 30 seconds ON, 30 seconds OFF; Diagenode). Sheared chromatin was precipitated with antibody-bound Dynabeads (Invitrogen). Following reverse crosslink and DNA extraction, antibody-bound DNA was eluted and analyzed with real-time PCR. Two criteria for normalization were applied: fold enrichment over anti-IgG background signal and input control over chromatin input signal.
as §1, with “OFF,” for “OFF;”

[2] = test system: claudin-14 mRNA; assay: claudin-14 mRNA levels in mouse kidney after systemic treatment (real-time PCR); type: in vivo; conditions: for claudin-14 mRNA, change: 30 mg/kg BW−1 per day for 6 days, 24 hrs following the last treatment; for claudin-14 mRNA relative to control level: by 8 hrs and through to 12 hrs
Protocol: NPS2143 and cinacalcet (Table 1) were dissolved in vehicle—20% (w/v) (2-Hydroxypropyl)-β-cyclodextrin solution and fed to mice with gavage syringe. Cyclosporin-A (Sandimmune; Table 1) was diluted in 0.9% saline and I.P. injected to animals. Control animals received vehicle injection (13% wiv Cremophor EL and 32.9% ethanol). For dietary Ca^2+ manipulation, animals were fed with the following diets for six consecutive days: basal diet: 0.61% Ca^2+ (TestDiet #5755); low Ca^2+ diet: 0 Ca^++ (TestDiet #5855); high Ca^2+ diet: 5% Ca^2+ (TestDiet #5AVB). All animals had free access to water and were housed under a 12 hr light cycle. Blood samples were taken by cardiac puncture rapidly after initiation of terminal anesthesia and centrifuged at 4° C. for 10 min. Kidney were dissected out and immediately frozen at −80° C.
(§2) Total RNA including microRNA was extracted using Trizol (Invitrogen). Cellular mRNA was reverse transcribed using the Superscript-III kit (Invitrogen), followed by real-time PCR amplification using SYBR Green PCR Master Mix (Bio-Rad) and Eppendorf Realplex2S system. The design of claudin-14 primers was described above. The design of pri-miRNA primers was according to Ma et al., (2010). Results were expressed as 2^−ΔCt values with ΔCT=Ctgene−Ctβ-actin.
SAHA and TsA were dissolved in 5% (w/v) ethanol/0.9% saline solution and fed to mice with gavage syringe. Furosemide was dissolved in 50% (w/v) DMSO/0.9% saline solution and I.P. injected to animals. All animals had free access to water and were housed under a 12 hr light cycle. Blood samples were taken by cardiac puncture rapidly after initiation of terminal anesthesia and centrifuged at 4° C. for 10 min. Kidney were dissected out and immediately frozen at −80° C.
Total RNA including microRNA was extracted using Trizol (Invitrogen). Cellular mRNA was reverse transcribed using the Superscript-III kit (Invitrogen), followed by real-time PCR amplification using SYBR Green PCR Master Mix (Bio-Rad) and Eppendorf Realplex2S system. The design of claudin-14 primers was described before by Gong et al., 2012. The design of pri-miRNA primers and ChIP primers was according to Gong et al., 2013. Results were expressed as 2^−ΔCt values with ΔCT=Ctgene−Ctβ-actin. […]
NPS2143 and cinacalcet (Table 9) were dissolved in vehicle −20% (w/v) (2-Hydroxypropyl)-β-cyclodextrin solution and fed to mice with gavage syringe. Cyclosporin-A (Sandimmune; Table 9) was diluted in 0.9% saline and I.P. injected to animals. Control animals received CNI vehicle injection (13% wiv Cremophor EL and 32.9% ethanol). FK506 was dissolved in CNI vehicle, diluted in 0.9% saline and I.P. injected to animals. For dietary Ca^+ manipulation, animals were fed with the following diets for six consecutive days: basal diet: 0.610% Ca^++ (TestDiet #5755); low Ca^++ diet: 0 Ca^++ (TestDiet #5855); high Ca^++ diet: 5% Ca^+ (TestDiet #5AVB). All animals had free access to water and were housed under a 12 hr light cycle. Blood samples were taken by cardiac puncture rapidly after initiation of terminal anesthesia and centrifuged at 4° C. for 10 min. Kidney were dissected out and immediately frozen at −80° C.
Total RNA including microRNA was extracted using Trizol (Invitrogen). Cellular mRNA was reverse transcribed using the Superscript-III kit (Invitrogen), followed by real-time PCR amplification using SYBR Green PCR Master Mix (Bio-Rad) and Eppendorf Realplex2S system. The design of claudin-14 primers was described before by Gong. Y., et al., 2012. The design of pri-miRNA primers was according to Ma. L., et al., 2010. Results were expressed as 2^−ΔCt values with ΔCT=Ctgene−Ctβ-actin.

[3] = test system: pri-miR-9-3; assay: pri-miR-9-3 transcript levels in TALH of treated mouse kidneys (real-time PCR); type: in vivo; conditions: 30 mg/kg BW−1; 2 hrs or 8 hrs
From the text: as §2
(§3) To measure the transcriptional level for microRNA gene in vivo in the kidney, the inventors designed primers (see Methods; Table 2) to amplify the pri-miRNA molecule, the original transcript for microRNA gene that had not yet been subjected to any nuclear or cellular processing. Because both miR-9 and miR-374 had broader localization profiles along the nephron, the inventors isolated the TALH tubular cells for pri-miRNA analyses from the mouse kidney described elsewhere in this study. WT mice (strain: C57BL/6) were treated with NPS2143 or cinacalcet as described for claudin-14 analyses and assayed for pri-miRNA levels in isolated TALH cells at 2 hrs and 8 hrs respectively. […] NPS2143 and cinacalcet also profoundly regulated pri-miR-374. […]
(§4) Total RNA including microRNA was extracted using Trizol (Invitrogen). […] Results were expressed as 2^−ΔCt values with ΔCT=Ctgene−Ctβ-actin.

[4] = test system: PTH; assay: plasma PTH levels after NPS2143 or cinacalcet; type: in vivo, mouse; conditions: for Plasma PTH level, course: 8 hrs versus 2 hr; for PTH response: cyclosporine-A pre-treated
[5] = test system: pri-miR-9-2; assay: pri-miR-9-2 transcript levels in TALH of treated mouse kidneys (real-time PCR); type: in vivo; conditions: 30 mg/kg BW−1; 2 hrs or 8 hrs
From the text: as §2, §3, §4

[6] = WT, at both 2 hrs and 8 hrs, 30 mg/kg BW−1, versus vehicle
[7] = TPTX mice, single dose 30 mg/kg BW−1, 2 hrs
[8] = cyclosporine-A pre-treated animals, 30 mg/kg BW−1, 2 hrs
[9] = second dose 30 mg/kg BW−1 at 12 hrs, measured at 14 hrs
[10] = single oral dose 30 mg/kg BW−1, 30 mg/kg

O=C(CCCCCCC(=O)Nc1ccccc1)NO [SAHA, Suberanilohydroxamic acid]
H3K9 and H3K14 acetylation, miR-9-1 promoter, increase ([1]; 25 mg/kg BW−1, 4 hrs): 2.40 fold | NFAT binding to miR-9-1 promoter ([1]; 25 mg/kg BW−1, 4 hrs): not affected | CLDN14 mRNA, dose response ([2]; 5 mg/kg to 25 mg/kg, 4 hrs): downregulation of CLDN14 at dosage as low as 5 mg/kg | effects on CLDN14 mRNA in the kidney ([2]; 25 mg/kg BW−1, 12 hrs): dissipated | reduction of CLDN14 expression in the kidney ([2]; 25 mg/kg BW−1, by 4 hrs and through to at least 8 hrs): persisted | CLDN14 mRNA levels in the kidney, reduction ([2]; single dose 25 mg/kg BW−1, 2 hrs): 56%

C[C@@H](NCCCc1cccc(C(F)(F)F)c1)c1cccc2ccccc12 [cinacalcet]
fold enrichment of NFATc1 over miR-9-1 promoter region ([1]; 30 mg/kg BW−1, 2 hrs): without significant effect | pri-miR-9-3 level, change [3]: Neither pri-miR-9-2 (FIG. 12B) nor pri-miR-9-3 level (FIG. 12C) was significantly altered; also recorded: Neither pri-miR-9-2 (FIG. 29B) nor pri-miR-9-3 level (FIG. 29C) was significantly altered | Plasma PTH level, course ([4]; WT): continued to suppress plasma PTH levels | plasma PTH levels [4, 6]: significantly affected | plasma PTH levels ([4]; claudin-14 KO animals, 2 hrs): suppressed PTH levels | PTH response ([4]; 2 hrs): intact PTH response | claudin-14 expression, induction (dose response) ([2]; 15 mg/kg BW−1, 2 hrs): 2.33 fold | claudin-14 expression, induction (dose response) ([2]; 30 mg/kg BW−1, 2 hrs): 3.17 fold | claudin-14 mRNA, change [2]: Neither NPS2143 nor cinacalcet caused changes | claudin-14 expression, induction (dose response) ([2]; 45 mg/kg BW−1, 2 hrs): 6.38 fold | claudin-14 expression levels, upregulation [2, 7]: 3.41 fold | claudin-14 mRNA levels, increase [2, 8]: 1.73 fold | claudin-14 mRNA levels, increase [2, 9]: 3.23 fold | claudin-14 mRNA level, upregulation ([2]; single oral dose 30 mg/kg BW−1, 2 hrs, intact mice, versus vehicle): 3.3 fold | claudin-14 mRNA level, upregulation (ceiling) ([2]; single oral dose 30 mg/kg BW−1, 4 hrs, versus vehicle, 30 mg/kg): 3.97 fold and 3.98 fold | claudin-14 mRNA relative to control level [2, 10]: recovered to its control level; also recorded: no significant change | pri-miR-9-2 level, change [5]: Neither pri-miR-9-2 (FIG. 12B) nor pri-miR-9-3 level (FIG. 12C) was significantly altered; also recorded: Neither pri-miR-9-2 (FIG. 29B) nor pri-miR-9-3 level (FIG. 29C) was significantly altered

CC(C)(Cc1ccc2ccccc2c1)NC[C@@H](O)COc1cccc(Cl)c1C#N [NPS2143]
H3K9 and H3K14 acetylation levels, miR-9-1 promoter region ([1]; 30 mg/kg BW−1, 2 hrs, higher than vehicle level): 2.43 fold | fold enrichment of NFATc1 over miR-9-1 promoter region ([1]; 30 mg/kg BW−1, 2 hrs): 3.55 fold | pri-miR-9-3 level, change [3]: Neither pri-miR-9-2 (FIG. 12B) nor pri-miR-9-3 level (FIG. 12C) was significantly altered; also recorded: Neither pri-miR-9-2 (FIG. 29B) nor pri-miR-9-3 level (FIG. 29C) was significantly altered | Plasma PTH level, course ([4]; WT): started to return towards baseline | plasma PTH levels [4, 6]: significantly affected | plasma PTH levels ([4]; claudin-14 KO animals, 2 hrs): significant increases in plasma PTH levels | PTH response ([4]; 2 hrs): intact PTH response | claudin-14 mRNA levels, reduction (dose response) ([2]; 15 mg/kg BW−1, 2 hrs): 45% | claudin-14 mRNA levels, reduction (dose response) ([2]; 30 mg/kg BW−1, 2 hrs): 82% | claudin-14 mRNA, change [2]: Neither NPS2143 nor cinacalcet caused changes | claudin-14 mRNA levels, reduction (dose response) ([2]; 45 mg/kg BW−1, 2 hrs): 89% | claudin-14 gene expression, downregulation [2, 7]: 35% | claudin-14 mRNA levels, change [2, 8]: failed to elicit any significant change | claudin-14 mRNA levels, reduction [2, 9]: 77% | claudin-14 mRNA level, downregulation ([2]; single oral dose 30 mg/kg BW−1, 2 hrs, versus vehicle): 80% | claudin-14 mRNA, percent of control level ([2]; single oral dose 30 mg/kg BW−1, 4 hrs): 78% | claudin-14 mRNA relative to control level [2, 10]: completely recovered to its control level; also recorded: no significant change | pri-miR-9-2 level, change [5]: Neither pri-miR-9-2 (FIG. 12B) nor pri-miR-9-3 level (FIG. 12C) was significantly altered; also recorded: Neither pri-miR-9-2 (FIG. 29B) nor pri-miR-9-3 level (FIG. 29C) was significantly altered
